One test relates to HT29 cells. Description: Proliferation assay for HT29 colorectal cancer cells (CellTiter-Glo cell viability). The following applies: Homo sapiens, HT-29; HT29 colorectal cancer cell line, 72 hours, ATP detection. In kind it is cell-based. Here is the method:
HT-29 which is a commercially available colorectal cancer cell line was treated with trypsin-EDTA, incubated, and seeded in a 96 well plate. […] The treated cells were incubated for further 72 hours and cell viability was measured by an ATP detection method (CellTiter-Glo LuminescentCell Viability Assay, Promega).
In order to confirm the anticancer effect of the compounds according to the present invention, a proliferation assay for HT29 cells which are a colorectal cancer cell line was performed by the above method, and IC50 values as a result are listed in the following Table 4: […]
In general terms: ATP-based viability assays read luminescence as a measure of living cells.

Another test has as its system YAP-TEAD. The test is described as follows: Luciferase assay of YAP-TEAD binding inhibition (TEAD luciferase reporter 8XGTIIC in HEK293T cells). In kind it is cell-based. The note with it: 10 μM, 24 hours, luciferase normalized with β-galactosidase. Here is the method: A Luciferase assay which allows an inhibition degree of YAP-TEAD, previously reported in Cancers 2018, 10(5), 140, was used to measure an in vitro binding inhibition rate of YAP-TEAD.
HEK293T cells were purchased from American Type Culture Collection and incubated in DMEM media containing 10% FBS, L-glutamine, and penicillin/streptomycin. The HEK293T cells were seeded in a 24 well plate at a density of 1×10^5, and coated with polyethyleneamine (10 μg/mL). These cells were transfected with 8XGTIIC-luciferase (Addgene reference 34615) which is TEAD luciferase reporter plasmid and control β-galactosidase plasmid CMV-β-Gal using a lipofectamine 2000 reagent (Life Technologies, Inc.) according to the manufacturer's manual. Thereafter, the compound of the present invention was treated at a concentration of 10 μM for 24 hours, the cells were lysed using a Reporter lysis buffer (Promega, France), luciferase activity was read with a Mithras LB940 plate reader, and then normalization was performed with β-galactosidase.
(In general: In a reporter assay the amount or activity of a reporter protein is the signal.)

The compound `Cc1ccc(S(=O)(=O)N2CCCCC2C(=O)Nc2ccc3c4c(cccc24)C(=O)N3Cc2ccccc2)cc1` (stereo not drawn) [Compound 5] had a 50% inhibitory concentration (IC50) in the test with HT29 cells of 7.1 µM. Still for that read-out and setting: the figure for `O=C(Nc1ccc2c3c(cccc13)C(=O)N2Cc1ccccc1)C1CCCCN1S(=O)(=O)c1ccc([N+](=O)[O-])cc1` (stereo not drawn) [Compound 6] is 7.29 µM; for `CS(=O)(=O)N1CCCCC1C(=O)Nc1ccc2c3c(cccc13)C(=O)N2Cc1ccccc1` (stereo not drawn) [Compound 9] it is 25.3 µM; for `COCCN1C(=O)c2cccc3c(NC(=O)C4CCCCN4S(=O)(=O)c4cccs4)ccc1c23` (stereo not drawn) [Compound 12] it is 30.7 µM. Turning to `COc1ccc(CCN2C(=O)c3cccc4c(NC(=O)C5CCCCN5S(=O)(=O)c5cccs5)ccc2c34)cc1` (stereo not drawn) [Compound 15], the “Inhibition(%)” value in the test with YAP-TEAD turned out to be 81%. Besides, the IC50 in the test on HT29 cells is 2.99 µM. For `O=C(Nc1ccc2c3c(cccc13)C(=O)N2CCc1ccc([N+](=O)[O-])cc1)C1CCCCN1S(=O)(=O)c1cccs1` (stereo not drawn) [Compound 16] the same measures were 77% and 4.24 µM. Take `O=C(Nc1ccc2c3c(cccc13)C(=O)N2Cc1ccncc1)C1CCCCN1S(=O)(=O)c1cccs1` (stereo not drawn) [Compound 18]: the IC50 in the test with HT29 cells was found to be 26.4 µM. With `N#CCCCN1C(=O)c2cccc3c(NC(=O)C4CCCCN4S(=O)(=O)c4cccs4)ccc1c23` (stereo not drawn) [Compound 20], the “Inhibition(%)” value with YAP-TEAD came out at 65%. The midpoint of inhibition in the test with HT29 cells, the IC50, lay at 32.3 µM.

As for `N#CCCN1C(=O)c2cccc3c(NC(=O)C4CCCCN4S(=O)(=O)c4cccs4)ccc1c23` (stereo not drawn) [Compound 21], the “Inhibition(%)” value in the test with YAP-TEAD worked out at 59%. The concentration for half-maximal inhibition (IC50) in the test on HT29 cells is 34.2 µM.

For `COCCCN1C(=O)c2cccc3c(NC(=O)C4CCCN(S(=O)(=O)c5ccc(Cl)s5)C4)ccc1c23` (stereo not drawn) [Compound 29], in the test on YAP-TEAD, the “Inhibition(%)” value is 87%. For the same compound, in the test on HT29 cells, 12.2 µM corresponded to half-maximal inhibition (IC50). On the same counts, the results for `COCCCN1C(=O)c2cccc3c(NC(=O)C4CCCCN4S(=O)(=O)c4ccc(Cl)s4)ccc1c23` (stereo not drawn) [Compound 30] are 56% and 22 µM. For `COCCCN1C(=O)c2cccc3c(NC(=O)C4CCCN(S(=O)(=O)c5ccc6c(c5)CCO6)C4)ccc1c23` (stereo not drawn) [Compound 34] the same measures were 87% and 13.3 µM. For the compound `COCCCN1C(=O)c2cccc3c(NC(=O)C4CCCCN4S(=O)(=O)c4cc([N+](=O)[O-])c(Cl)s4)ccc1c23` (stereo not drawn) [Compound 38], in the test with HT29 cells, the IC50 turned out to be 2.2 µM.

Turning to `COCCCN1C(=O)c2cccc3c(NC(=O)C4CCCCN4S(=O)(=O)c4ccc5c(c4)CCO5)ccc1c23` (stereo not drawn) [Compound 39], the “Inhibition(%)” value in the test with YAP-TEAD is recorded as 66%. In the test on HT29 cells, this compound yielded a half-inhibitory concentration (IC50) of 20.3 µM. On the same counts, the results for `COCCCN1C(=O)c2cccc3c(NC(=O)C4CCCCN4S(=O)(=O)c4ccc(OC)c(OC)c4)ccc1c23` (stereo not drawn) [Compound 42] are 68% and 44.5 µM.

In the case of `COCCCN1C(=O)c2cccc3c(NC(=O)C4CCCCN4S(=O)(=O)c4sc(NC(C)=O)nc4C)ccc1c23` (stereo not drawn) [Compound 43], the “Inhibition(%)” value in the test on YAP-TEAD was 50%. The half-maximal inhibitory concentration (IC50) in the test on HT29 cells stood at 35 µM.

`O=C(Nc1ccc2c3c(cccc13)C(=O)N2CCCO)C1CCCCN1S(=O)(=O)c1cccs1` (stereo not drawn) [Compound 45] registered an IC50 with HT29 cells of 40.4 µM. Still for that read-out and setting: to `COCCCN1C(=O)c2cccc3c(NC(=O)C4CCCN(S(=O)(=O)c5sc(NC(C)=O)nc5C)C4)ccc1c23` (stereo not drawn) [Compound 47] belongs 29.2 µM.

Consider `COCCCN1C(=O)c2cccc3c(NC(=O)C4CCCN(S(=O)(=O)c5ccc6c(c5)OCO6)C4)ccc1c23` (stereo not drawn) [Compound 56], for which the “Inhibition(%)” value with YAP-TEAD worked out at 63%. This compound also yielded an IC50 with HT29 cells of 9.8 µM. As to `COC(C)(C)CCN1C(=O)c2cccc3c(NC(=O)C4CCCCN4S(=O)(=O)c4cccs4)ccc1c23` (stereo not drawn) [Compound 58], the “Inhibition(%)” value in the test with YAP-TEAD is given as 65%. In the test on HT29 cells, this compound showed an IC50 of 10.2 µM. Turning to `COCCCN1C(=O)c2cccc3c(NC(=O)C4CCCN(S(=O)(=O)c5ccc(Br)s5)C4)ccc1c23` (stereo not drawn) [Compound 59], the “Inhibition(%)” value in the test with YAP-TEAD is 87%. In addition, 7.6 µM corresponded to half-maximal inhibition in the test on HT29 cells (IC50). On the same counts, the results for `COCCCN1C(=O)c2cccc3c(NC(=O)C4CCCCN4S(=O)(=O)c4ccc(Br)s4)ccc1c23` (stereo not drawn) [Compound 60] are 67% and 12.5 µM. In the case of `COCCCN1C(=O)c2cccc3c(NC(=O)C4CCCN(S(=O)(=O)c5cc(Br)c(Br)s5)C4)ccc1c23` (stereo not drawn) [Compound 61], in the test with HT29 cells, inhibition was half-maximal at 5.6 µM (IC50). Turning to `COCCCN1C(=O)c2cccc3c(NC(=O)C4CCCN(S(=O)(=O)c5scnc5C)C4)ccc1c23` (stereo not drawn) [Compound 64], in the test on YAP-TEAD, the “Inhibition(%)” value was 76%. In addition, in the test with HT29 cells, half-maximal inhibition (IC50) was put at 24.7 µM.

Regarding `COCCCN1C(=O)c2cccc3c(NC(=O)C4CCCN(S(=O)(=O)c5cc6c(s5)CCCC6)C4)ccc1c23` (stereo not drawn) [Compound 65], half-maximal inhibition in the test with HT29 cells (IC50) required 17.5 µM. On to `COCCCN1C(=O)c2cccc3c(NC(=O)C4CCCCN4S(=O)(=O)c4c(Cl)sc(Cl)c4Br)ccc1c23` (stereo not drawn) [Compound 66], for which the “Inhibition(%)” value in the test on YAP-TEAD is 59%. This compound showed an IC50 in the test with HT29 cells of 8.7 µM.

Regarding `COCCCN1C(=O)c2cccc3c(NC(=O)C4CCCN(S(=O)(=O)c5c(Cl)nc6sccn56)C4)ccc1c23` (stereo not drawn) [Compound 68], in the test on YAP-TEAD, the “Inhibition(%)” value is recorded as 81%. The compound also yielded a half-inhibitory concentration (IC50) with HT29 cells of 10.9 µM. For `COCCCN1C(=O)c2cccc3c(NC(=O)C4CCCN(S(=O)(=O)c5cccc6nsnc56)C4)ccc1c23` (stereo not drawn) [Compound 69] the same measures were 94% and 16.8 µM. `COCCCN1C(=O)c2cccc3c(NC(=O)C4CCCN(S(=O)(=O)c5cccc6cccnc56)C4)ccc1c23` (stereo not drawn) [Compound 75]: the “Inhibition(%)” value in the test with YAP-TEAD is 93%. For the same compound, the IC50 in the test with HT29 cells was 16.8 µM.

`COCCCN1C(=O)c2cccc3c(NC(=O)C4CCCCN4S(=O)(=O)c4c(Cl)nc5sccn45)ccc1c23` (stereo not drawn) [Compound 78]: in the test with YAP-TEAD, the “Inhibition(%)” value was determined as 53%. In addition, the IC50 in the test with HT29 cells is 30.1 µM.

As to `COCCCN1C(=O)c2cccc3c(NC(=O)C4CCCCN4S(=O)(=O)c4cccc5nsnc45)ccc1c23` (stereo not drawn) [Compound 79], in the test with YAP-TEAD, the “Inhibition(%)” value is 71%. In the test on HT29 cells, the concentration for half-maximal inhibition (IC50) is 14 µM. For `COCCCN1C(=O)c2cccc3c(NC(=O)C4CCCCN4S(=O)(=O)c4cc(Br)c(Br)s4)ccc1c23` (stereo not drawn) [Compound 80] the same measures were 77% and 5.6 µM. In the test with HT29 cells, `COCCCN1C(=O)c2cccc3c(NC(=O)C4CCCCN4S(=O)(=O)c4scnc4C)ccc1c23` (stereo not drawn) [Compound 81] returned an IC50 of 45.4 µM.

`COCCCN1C(=O)c2cccc3c(NC(=O)C4CCCCN4S(=O)(=O)c4cccc(C(F)(F)F)n4)ccc1c23` (stereo not drawn) [Compound 82] showed an IC50 in the test on HT29 cells of 30.6 µM. This IC50 and that of the compound before are within 1.5-fold of each other. Take `COCCCN1C(=O)c2cccc3c(NC(=O)C4CCCCN4S(=O)(=O)c4ccc5c(c4)OCCO5)ccc1c23` (stereo not drawn) [Compound 83]: the “Inhibition(%)” value with YAP-TEAD stood at 92%. The compound also had an IC50 in the test with HT29 cells of 19.4 µM. For the compound `COCCCN1C(=O)c2cccc3c(NC(=O)C4CCCCN4S(=O)(=O)c4ccccc4)ccc1c23` (stereo not drawn) [Compound 138], the “Inhibition(%)” value in the test with YAP-TEAD stood at 79%.

For `CS(=O)(=O)N1CCC(CCN2C(=O)c3cccc4c(NC(=O)C5CCCCN5S(=O)(=O)c5ccco5)ccc2c34)CC1` (stereo not drawn) [Compound 139], the “Inhibition(%)” value in the test with YAP-TEAD is reported as 98%. Still for that read-out and setting: the figure for `COCCCN1C(=O)c2cccc3c(NC(=O)C4CCCCN4S(=O)(=O)c4ccc(N)cc4)ccc1c23` (stereo not drawn) [Compound 145] is 53%; for `COCCCN1C(=O)c2cccc3c(NC(=O)C4CCCN(S(=O)(=O)c5ccc6c(c5)OC(F)(F)O6)C4)ccc1c23` (stereo not drawn) [Compound 149] it is 59%; for `COCCCN1C(=O)c2cccc3c(NC(=O)C4CCCN(S(=O)(=O)c5ccc(-c6ccccc6)cc5)C4)ccc1c23` (stereo not drawn) [Compound 151] it is 57%. The same measure, in the same setting: to `COCCCN1C(=O)c2cccc3c(NC(=O)C4CCCCN4S(=O)(=O)c4ccc(-c5ccccc5)cc4)ccc1c23` (stereo not drawn) [Compound 152] belongs 77%; to `COCCCN1C(=O)c2cccc3c(NC(=O)C4CCCCN4S(=O)(=O)c4ccc(NC(C)=O)cc4)ccc1c23` (stereo not drawn) [Compound 153], 55%; to `O=C(Nc1ccc2c3c(cccc13)C(=O)N2CCS(=O)(=O)c1ccccc1)C1CCCN(S(=O)(=O)c2ccc3c(c2)CCO3)C1` (stereo not drawn) [Compound 155], 66%. On the same count and under the same terms, to `O=C(Nc1ccc2c3c(cccc13)C(=O)N2CCS(=O)(=O)c1ccccc1)C1CCCCN1S(=O)(=O)c1ccc2c(c1)CCO2` (stereo not drawn) [Compound 156] belongs 64%; to `COCCCN1C(=O)c2cccc3c(NC(=O)C4CCCN(S(=O)(=O)c5ccc(-c6ccccc6)s5)C4)ccc1c23` (stereo not drawn) [Compound 158], 61%; to `COCCCN1C(=O)c2cccc3c(NC(=O)C4CCCCN4S(=O)(=O)c4ccc(-c5ccccc5)s4)ccc1c23` (stereo not drawn) [Compound 159], 84%. `COCCCN1C(=O)c2cccc3c(NC(=O)C4CCCCN4S(=O)(=O)c4ccco4)ccc1c23` (stereo not drawn) [Compound 160]: in the test on YAP-TEAD, the “Inhibition(%)” value was 53%. Consider `COCCCN1C(=O)c2cccc3c(NC(=O)C4CCCN(S(=O)(=O)c5ccc(F)cc5)C4)ccc1c23` (stereo not drawn) [Compound 161], for which, in the test with YAP-TEAD, the “Inhibition(%)” value was found to be 88%. For the compound `COCCCN1C(=O)c2cccc3c(NC(=O)C4CCCCN4S(=O)(=O)c4cccc(F)c4)ccc1c23` (stereo not drawn) [Compound 162], the “Inhibition(%)” value with YAP-TEAD worked out at 74%.

By IC50 is commonly meant the midpoint of a concentration-inhibition curve. Low values mean greater potency, high ones weaker potency.

Source of the values: patent US20220017491A1, “COMPOUND INHIBITING YAP-TEAD BINDING, AND PHARMACEUTICAL COMPOSITION FOR PREVENTING OR TREATING CANCER, COMPRISING COMPOUND AS ACTIVE INGREDIENT” (KOREA RESEARCH INSTITUTE OF CHEMICAL TECHNOLOGY, priority 2018, published 2022).
